Patent US10214542B2, “Modified macrocyclic compounds” (BAYER PHARMA AKTIENGESELLSCHAFT, priority 2015, dated 2019)
Where two headings read alike, the source gives them in different places.

Columns and labels:
[1] = target: T1, CDK2/CycE (Homo sapiens, UniProt P24941); test: CDK2/CycE high ATP kinase assay (TR-FRET, Method 2b); format: biochemical; details: 2 mM ATP
T1 construct: GST; purchased ProQinase GmbH (Freiburg, Germany); host or cells: insect cells (Sf9)
Method: 2b. CDK2/CycE High ATP Kinase Assay:
CDK2/CycE-inhibitory activity of compounds of the present invention at 2 mM adenosine-tri-phosphate (ATP) was quantified employing the CDK2/CycE TR-FRET (TR-FRET=Time Resolved Fluorescence Resonance Energy Transfer) assay as described in the following paragraphs.
Recombinant fusion proteins of GST and human CDK2 and of GST and human CycE, expressed in insect cells (Sf9) and purified by Glutathion-Sepharose affinity chromatography, were purchase from ProQinase GmbH (Freiburg, Germany). As substrate for the kinase reaction biotinylated peptide biotin-Ttds-YISPLKSPYKISEG (C-terminus in amid form) was used which can be purchased e.g. from the company JERINI peptide technologies (Berlin, Germany).
For the assay 50 nl of a 100 fold concentrated solution of the test compound in DMSO was pipetted into a black low volume 384 well microtiter plate (Greiner Bio-One, Frickenhausen, Germany), 2 μl of a solution of CDK2/CycE in aqueous assay buffer [50 mM Tris/HCl pH 8.0, 10 mM MgCl2, 1.0 mM dithiothreitol, 0.1 mM sodium ortho-vanadate, 0.01% (v/v) Nonidet-P40 (Sigma)] were added and the mixture was incubated for 15 min at 22° C. to allow pre-binding of the test compounds to the enzyme before the start of the kinase reaction. Then the kinase reaction was started by the addition of 3 μl of a solution ATP (3.33 mM=>final conc. in the 5 μl assay volume is 2 mM) and substrate (1.25 μM=>final conc. in the 5 μl assay volume is 0.75 μM) in assay buffer and the resulting mixture was incubated for a reaction time of 25 min at 22° C. The concentration of CDK2/CycE was adjusted depending of the activity of the enzyme lot and was chosen appropriate to have the assay in the linear range, typical concentrations were in the range of 15 ng/ml. The reaction was stopped by the addition of 5 μl of a solution of TR-FRET detection reagents (0.2 μM streptavidine-XL665 [Cisbio Bioassays, Codolet, France] and 1 nM anti-RB(pSer807/pSer811)-antibody from BD Pharmingen [#558389] and 1.2 nM LANCE EU-W1024 labeled anti-mouse IgG antibody [Perkin-Elmer, product no. AD0077, as an alternative a Terbium-cryptate-labeled anti-mouse IgG antibody from Cisbio Bioassays can be used]) in an aqueous EDTA-solution (100 mM EDTA, 0.2% (w/v) bovine serum albumin in 100 mM HEPES pH 7.5).
The resulting mixture was incubated 1 h at 22° C. to allow the formation of complex between the phosphorylated biotinylated peptide and the detection reagents. Subsequently the amount of phosphorylated substrate was evaluated by measurement of the resonance energy transfer from the Eu-chelate to the streptavidine-XL. Therefore, the fluorescence emissions at 620 nm and 665 nm after excitation at 350 nm were measured in a TR-FRET reader, e.g. a Rubystar (BMG Labtechnologies, Offenburg, Germany) or a Viewlux (Perkin-Elmer). The ratio of the emissions at 665 nm and at […] was taken as the measure for the amount of phosphorylated substrate. The data were normalised (enzyme reaction without inhibitor=0% inhibition, all other assay components but no enzym=100% inhibition).

[2] = system: HeLa cells; test: Proliferation assay, crystal violet (Method 3); format: cell-based, human; details: Homo sapiens, 96 h, 4 days, read-out: Inhibition of HeLa cell proliferation IC50
Method: Cultivated tumour cells (HeLa, human cervical tumour cells, ATCC CCL-2; NCI-H460, human non-small cell lung carcinoma cells, ATCC HTB-177; DU 145, hormone-independent human prostate carcinoma cells, ATCC HTB-81; HeLa-MaTu-ADR, multidrug-resistant human cervical carcinoma cells, EPO-GmbH Berlin; Caco-2, human colorectal carcinoma cells, ATCC HTB-37; B16F10, mouse melanoma cells, ATCC CRL-6475) were plated at a density of 5,000 cells/well (DU145, HeLa-MaTu-ADR), 3,000 cells/well (NCI-H460, HeLa), 1,500 cells/well (Caco-2), or 1,000 cells/well (B16F10) in a 96-well multititer plate in 200 μL of their respective growth medium supplemented 10% fetal calf serum. After 24 hours, the cells of one plate (zero-point plate) were stained with crystal violet (see below), while the medium of the other plates was supplemented with the test substances in various concentrations (0 μM, as well as in the range of 0.0001-10 μM; the final concentration of the solvent dimethyl sulfoxide was adjusted to 0.1%) using a Hewlett-Packard HP D300 Digital Dispenser. The cells were incubated for 4 days in the presence of test substances. Cell proliferation was determined by staining the cells with crystal violet: the cells were fixed by adding 20 μl/measuring point of an 11% glutaric aldehyde solution for 15 minutes at room temperature. After three washing cycles of the fixed cells with water, the plates were dried at room temperature. The cells were stained by adding 100 μl/measuring point of a 0.1% crystal violet solution (pH 3.0). After three washing cycles of the stained cells with water, the plates were dried at room temperature. The dye was dissolved by adding 100 μl/measuring point of a 10% acetic acid solution. The extinction was determined by photometry at a wavelength of 595 nm. The change of cell number, in percent, was calculated by normalization of the measured values to the extinction values of the zero-point plate (=0%) and the extinction of the untreated (0 μm) cells (=100%). The IC50 values (inhibitory concentration at 50% of maximal effect) were determined by means of a 4 parameter fit.

[3] = system: A2780 cells; test: Proliferation assay, Cell Titre-Glo viability (Method 3); format: cell-based, human; details: A2780, 72-hour exposure, read-out: Inhibition of A2780 cell proliferation IC50
Method: A2780 human ovarian carcinoma cells (ECACC #93112519) and non-adherent MOLM-13 human acute myeloid leukemia cells (DSMZ ACC 554) were seeded at a density of 3,000 cell/well (A2780) or 5,000 cells/well (MOLM-13) in a 96-well multititer plate in 150 μL of growth medium supplemented 10% fetal calf serum. After 24 hours, cell viability of one plate (zero-point plate) was determined with the Cell Titre-Glo Luminescent Cell Viability Assay (Promega), while the medium of the other plates was supplemented with the test substances in various concentrations (0 μM, as well as in the range of 0.0001-10 μM; the final concentration of the solvent dimethyl sulfoxide was adjusted to 0.1%) using a Hewlett-Packard HP D300 Digital Dispenser. Cell viability was assessed after 72-hour exposure with the Cell
Titre-Glo Luminescent Cell Viability Assay (Promega). IC50 values (inhibitory concentration at 50% of maximal effect) were determined by means of a 4 parameter fit on measurement data which were normalized to vehicle (DMSO) treated cells (=100%) and measurement readings taken immediately before compound exposure (=0%).

SMILES: CC(C)(C)OC(=O)N=S(C)(=O)Cc1cc2cc(c1)OCCCNc1cc(F)ccc1-c1nc(ncc1F)N2 (racemic) [Example 13, (rac)-tert-butyl[{[15,19-difluoro-1,2,3,4-tetrahydro-16,12-(azeno)-6,10-(metheno)-5,1,11,13-benzoxatriazacyclooctadecin-8(11H)-yl]methyl}(methyl)oxido-λ^6-sulfanylidene]carbamate]
- IC50 [1]: 1280 nM
- IC50 [2]: 78 nM
- IC50 ([3]; Homo sapiens, A2780, 72 h): 19 nM

SMILES: CC(C)(C)OC(=O)N=S(C)(=O)Cc1cc2cc(c1)OCCCCNc1cc(F)ccc1-c1nc(ncc1F)N2 (racemic) [Example 15, (rac)-tert-butyl[{[16,20-difluoro-2,3,4,5-tetrahydro-1H,12H-13,17-(azeno)-11,7-(metheno)-6,1,12,14-benzoxatriazacyclononadecin-9-yl]methyl}(methyl)oxido-λ^6-sulfanylidene]carbamate]
- IC50 [1]: 3350 nM
- IC50 [2]: 33 nM
- IC50 ([3]; Homo sapiens, A2780, 72 h): 31 nM

SMILES: CS(=N)(=O)Cc1cc2cc(c1)OCCCCNc1cc(F)ccc1-c1nc(ncc1F)N2 (racemic) [Example 16, (rac)-16,20-difluoro-9-[(S-methylsulfonimidoyl)methyl]-2,3,4,5-tetrahydro-1H-17,13-(azeno)-7,11-(metheno)-6,1,12,14-benzoxatriazacyclononadecine]
- IC50 [1]: 227 nM
- IC50 [2]: 10 nM
- IC50 ([3]; Homo sapiens, A2780, 72 h): 8.2 nM

SMILES: CN1CCCCNc2cc(F)ccc2-c2nc(ncc2F)Nc2cc(CS(C)(=N)=O)cc1c2.O=CO (racemic) [Example 17, (rac)-16,20-difluoro-6-methyl-9-[(S-methylsulfonimidoyl)methyl]-1,2,3,4,5,6-hexahydro-12H-17,13-(azeno)-11,7-(metheno)-1,6,12,14-benzotetraazacyclononadecine; salt with formic acid]
- IC50 [1]: 622 nM
- IC50 [2]: 31 nM
- IC50 ([3]; Homo sapiens, A2780, 72 h): 6.5 nM

SMILES: C[S+]([O-])Cc1cc2nc(c1)OCCCCCc1cc(F)ccc1-c1cc(ncc1F)N2 (racemic) [Example 19, (rac)-2,19-difluoro-9-[(methylsulfinyl)methyl]-14,15,16,17-tetrahydro-6H,13H-7,11-(azeno)-5,1-(metheno)-12,4,6-benzoxadiazacyclononadecine]
- IC50 [1]: 1410 nM
- IC50 [2]: 1000 nM
- IC50 ([3]; Homo sapiens, A2780, 72 h): > 100 nM

SMILES: CS(=N)(=O)Cc1cc2nc(c1)OCCCCCc1cc(F)ccc1-c1cc(ncc1F)N2 (racemic) [Example 20, (rac)-2,19-difluoro-9-[(S-methylsulfonimidoyl)methyl]-14,15,16,17-tetrahydro-6H,13H-7,11-(azeno)-5,1-(metheno)-12,4,6-benzoxadiazacyclononadecine]
- IC50 [1]: 921 nM
- IC50 [2]: 408 nM
- IC50 [3]: 161 nM
- IC50 ([3]; Homo sapiens, A2780, 72 h): > 100 nM

SMILES: CC(C)(C)OC(=O)N=S(C)(=O)Cc1cc2cc(c1)OCCCCSc1cc(F)ccc1-c1nc(ncc1F)N2 (racemic) [Example 21, (rac)-tert-butyl[{[16,20-difluoro-2,3,4,5-tetrahydro-12H-17,13-(azeno)-11,7-(metheno)-6,1,12,14-benzoxathiadiazacyclononadecin-9-yl]methyl}(methyl)oxido-λ^6-sulfanylidene]carbamate]
- IC50 [1]: 11900 nM
- IC50 [2]: 327 nM
- IC50 ([3]; Homo sapiens, A2780, 72 h): > 100 nM

SMILES: CS(=N)(=O)Cc1cc2cc(c1)OCCCCSc1cc(F)ccc1-c1nc(ncc1F)N2 (racemic) [Example 22, (rac)-16,20-difluoro-9-[(S-methylsulfonimidoyl)methyl]-2,3,4,5-tetrahydro-12H-17,13-(azeno)-11,7-(metheno)-6,1,12,14-benzoxathiadiazacyclononadecine]
- IC50 [1]: 1100 nM
- IC50 [2]: 102 nM
- IC50 ([3]; Homo sapiens, A2780, 72 h): 45 nM

SMILES: CSCc1cc2nc(c1)Nc1cc(c(F)cn1)-c1ccc(F)cc1OCCCN2 [Example 1, 15,19-Difluoro-8-[(methylsulfanyl)methyl]-2,3,4,5-tetrahydro-11H-10,6-(azeno)-12,16-(metheno)-1,5,11,13-benzoxatriazacyclooctadecine]
- IC50 [1]: 531 nM
- IC50 [2]: 28 nM
- IC50 ([3]; Homo sapiens, A2780, 72 h): 9 nM

SMILES: CSCc1cc2nc(c1)OCCCCCc1cc(F)ccc1-c1cc(ncc1F)N2 [Example 18, 2,19-difluoro-9-[(methylsulfanyl)methyl]-14,15,16,17-tetrahydro-6H,13H-7,11-(azeno)-5,1-(metheno)-12,4,6-benzoxadiazacyclononadecine]
- IC50 [1]: > 20000 nM
- IC50 [2]: > 10000 nM
- IC50 ([3]; Homo sapiens, A2780, 72 h): > 100 nM
